In patent publication US12606523B2, “Deuterated organic compounds and uses thereof” (ENGRAIL THERAPEUTICS, INC., priority 2022, dated 2026):

Key:
[1] = tested on: Sprague Dawley rats; assay: DOI-induced headshake response; format: in vivo; conditions: rat
Description: Adult male Sprague Dawley rats are used. […] DOI (3 mg/kg) is dissolved in saline and administered IP at a dose volume of 1 ml/kg (10 minutes prior to test). Ketanserin (1 mg/kg) is dissolved in saline and injected IP 30 minutes prior to DOI at a dose volume of […].
Rats are then injected with DOI and headshakes are recorded 10 minutes after DOI injection for 10 minutes using video cameras. The headshake response is a rapid, rhythmic shaking of the head in a radial motion. Data is analyzed by ANOVA followed by post hoc analysis where appropriate.

[2] = tested on: Sprague Dawley rats; assay: Conditioned Avoidance Response test; conditions: rat
Description: (§1) The Conditioned Avoidance Response (CAR) Test is an animal model screening for antipsychotic drugs.

[3] = target: human Dopamine D3 receptor (Homo sapiens, UniProt P35462); conditions: GTPγS; % inhibition of reference agonist at EC80
Description: (§2) SPA ^35S-GTPgS experiments are conducted with membrane preparations. IP-One and cAMP HTRF assays are conducted with recombinant cell lines.
(§3) Agonist activity of test compounds is expressed as a percentage of the activity of the reference agonist at its EC100 concentration. Antagonist activity of the test compound is expressed as a percentage of the inhibition of reference agonist activity at its EC80 concentration.

[4] = target: T1, human Serotonin 5-HT1A receptor (Homo sapiens, UniProt P08908); conditions: cAMP; % of reference agonist at EC100
T1 sequence (P08908 1-422): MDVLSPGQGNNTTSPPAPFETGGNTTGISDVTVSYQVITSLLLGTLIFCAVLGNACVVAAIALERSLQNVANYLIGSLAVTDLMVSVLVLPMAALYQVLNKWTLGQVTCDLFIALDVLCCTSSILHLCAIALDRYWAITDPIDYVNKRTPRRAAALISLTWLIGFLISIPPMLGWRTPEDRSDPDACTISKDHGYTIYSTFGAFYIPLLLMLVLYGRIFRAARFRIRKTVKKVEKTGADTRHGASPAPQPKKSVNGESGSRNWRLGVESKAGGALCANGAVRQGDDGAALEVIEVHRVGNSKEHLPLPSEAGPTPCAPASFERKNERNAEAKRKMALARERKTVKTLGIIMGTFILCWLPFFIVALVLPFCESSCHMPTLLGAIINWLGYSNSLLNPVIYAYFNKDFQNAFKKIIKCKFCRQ
Description: as §2, §3

[5] = target: T2, human Dopamine D4.4 receptor (Homo sapiens, UniProt P21917); conditions: cAMP; % inhibition of reference agonist at EC80
T2 sequence (P21917 1-419): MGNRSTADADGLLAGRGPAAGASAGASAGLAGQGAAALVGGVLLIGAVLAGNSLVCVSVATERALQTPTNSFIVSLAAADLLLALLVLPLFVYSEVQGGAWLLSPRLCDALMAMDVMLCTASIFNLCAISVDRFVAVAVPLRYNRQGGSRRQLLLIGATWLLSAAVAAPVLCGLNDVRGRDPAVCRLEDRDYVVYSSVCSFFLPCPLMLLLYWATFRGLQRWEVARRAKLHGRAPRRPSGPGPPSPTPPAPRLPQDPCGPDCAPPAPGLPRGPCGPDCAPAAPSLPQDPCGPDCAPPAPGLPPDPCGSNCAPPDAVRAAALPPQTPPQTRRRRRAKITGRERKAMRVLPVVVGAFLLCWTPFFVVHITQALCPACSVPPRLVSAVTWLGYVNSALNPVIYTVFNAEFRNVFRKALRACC
Description: as §2, §3

[6] = target: T3, human Serotonin 5-HT2A receptor (Homo sapiens, UniProt P28223); conditions: IP-one; % of reference agonist at EC100
Description: as §2, §3

[7] = target: human Dopamine D2S receptor (Homo sapiens, UniProt P14416); conditions: cAMP, % inhibition of reference agonist at EC80
Description: (§4) IP-One and cAMP HTRF assays are conducted with recombinant cell lines.
as §3

[8] = target: T4, human Serotonin 5-HT7A receptor (Homo sapiens, UniProt P34969); assay: Radioligand binding competition, filtration, [3H]-LSD, CHO-K1 membranes
T4 construct: expressed in transfected cells; host or cells: CHO-K1

[9] = target: human Dopamine D2L receptor (Homo sapiens, UniProt P14416); conditions: cAMP, % inhibition of reference agonist at EC80
Description: as §2, §3

[10] = target: T3, human Serotonin 5-HT2A receptor; assay: IP-One HTRF functional assay, antagonist mode; format: cell-based; parameters: expressed in transfected cells; host or cells: CHO-K1; conditions: % inhibition of reference agonist at EC80
Description: as §4, §3

[11] = tested on: Sprague Dawley rats; assay: Headshake response; format: in vivo, rat
Description: Adult male Sprague Dawley rats are used. […] DOI (3 mg/kg) is dissolved in saline and administered IP at a dose volume of 1 ml/kg (10 minutes prior to test).
The headshake response is a rapid, rhythmic shaking of the head in a radial motion. Data are analyzed by ANOVA followed by post hoc analysis where appropriate.

[12] = tested on: Sprague Dawley rats; conditions: rat, in vivo, po, 5 mg/kg
Description: as §1

[13] = target: T4, human Serotonin 5-HT7A receptor; assay: cAMP HTRF functional assay, antagonist mode; format: cell-based
[14] = tested on: Sprague Dawley rats; assay: Touchscreen-based rat Probabilistic Reward Task; format: in vivo
Description: The Probabilistic Reward Task (PRT) uses visual discrimination methodology to quantify reward responsiveness to both identify deficits and characterize drug-induced improvements.
Male Sprague Dawley rats are used in the present study.
Briefly, a custom-built Plexiglas chamber (25×30×35 cm) is situated in a sound- and light-attenuating enclosure (40×60×45 cm). A 17″ touch-sensitive screen (1739L, ELO TouchSystems, Menlo Park, CA) comprises the inside right-hand wall of the enclosure. An infusion pump (PHM-100-5, Med Associates, St. Albans, VT) outside the enclosure is used to deliver sweetened condensed milk solution into the shallow reservoir of a custom-designed aluminum receptacle. The receptacle is mounted 3 cm above the floor bars and centered on the left-hand inside wall. Both touchscreen and fluid reservoir are easily accessible to the subject. A speaker bar (NQ576AT, Hewlett-Packard, Palo Alto, CA) mounted above the touchscreen is used to emit audible feedback. All experimental events and data collection are programmed in E-Prime Professional 2.0 (Psychology Software Tools, Inc., Sharpsburg, PA). […]
Following line-length discrimination training, probabilistic reinforcement schedules are introduced. […] These probabilistic contingencies are assessed across 5 consecutive sessions prior to initiation of drug testing. […]

[15] = target: T5, 5-HT1A (Homo sapiens, UniProt P08908); assay: Functional assay, antagonist mode (Table 6); format: cell-based; conditions: read-out: 5-HT1A (antagonist mode) Emax
T5 sequence (P08908 1-422): T1 sequence (P08908 1-422)

[16] = target: 5-HT2B (Homo sapiens, UniProt P41595); assay: Functional assay, antagonist mode (Table 6); format: cell-based
[17] = 0.5 mg/kg i.p. 30 minutes prior to test
[18] = 2.5 and 5 mg/kg orally 4 hours prior to test

T3 sequence (P28223 whole entry): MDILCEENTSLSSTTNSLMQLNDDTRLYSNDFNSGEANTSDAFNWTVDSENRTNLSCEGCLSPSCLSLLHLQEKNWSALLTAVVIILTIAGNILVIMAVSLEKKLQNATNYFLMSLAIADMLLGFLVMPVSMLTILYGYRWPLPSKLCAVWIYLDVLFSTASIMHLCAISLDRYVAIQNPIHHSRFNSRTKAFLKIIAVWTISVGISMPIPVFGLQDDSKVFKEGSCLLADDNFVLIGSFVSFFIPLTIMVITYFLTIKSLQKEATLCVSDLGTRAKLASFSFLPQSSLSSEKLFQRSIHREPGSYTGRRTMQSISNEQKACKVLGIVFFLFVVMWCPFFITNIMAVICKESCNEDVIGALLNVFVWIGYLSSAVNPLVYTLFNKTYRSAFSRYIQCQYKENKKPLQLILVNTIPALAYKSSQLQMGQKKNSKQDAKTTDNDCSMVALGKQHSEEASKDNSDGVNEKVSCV
T4 sequence (P34969 1-445 isoform P34969-2): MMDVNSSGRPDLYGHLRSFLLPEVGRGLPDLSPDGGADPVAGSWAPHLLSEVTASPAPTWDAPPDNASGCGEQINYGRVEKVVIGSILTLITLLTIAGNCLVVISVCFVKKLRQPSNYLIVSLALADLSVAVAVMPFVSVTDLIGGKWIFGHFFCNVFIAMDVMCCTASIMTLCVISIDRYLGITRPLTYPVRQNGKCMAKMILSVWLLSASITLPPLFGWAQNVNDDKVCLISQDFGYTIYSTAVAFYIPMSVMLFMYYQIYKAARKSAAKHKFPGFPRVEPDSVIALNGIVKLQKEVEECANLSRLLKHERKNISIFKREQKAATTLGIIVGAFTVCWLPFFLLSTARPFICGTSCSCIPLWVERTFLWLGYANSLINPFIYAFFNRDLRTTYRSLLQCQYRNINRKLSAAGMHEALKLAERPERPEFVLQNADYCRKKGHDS
Chain of human Dopamine D2L receptor (P14416 whole entry): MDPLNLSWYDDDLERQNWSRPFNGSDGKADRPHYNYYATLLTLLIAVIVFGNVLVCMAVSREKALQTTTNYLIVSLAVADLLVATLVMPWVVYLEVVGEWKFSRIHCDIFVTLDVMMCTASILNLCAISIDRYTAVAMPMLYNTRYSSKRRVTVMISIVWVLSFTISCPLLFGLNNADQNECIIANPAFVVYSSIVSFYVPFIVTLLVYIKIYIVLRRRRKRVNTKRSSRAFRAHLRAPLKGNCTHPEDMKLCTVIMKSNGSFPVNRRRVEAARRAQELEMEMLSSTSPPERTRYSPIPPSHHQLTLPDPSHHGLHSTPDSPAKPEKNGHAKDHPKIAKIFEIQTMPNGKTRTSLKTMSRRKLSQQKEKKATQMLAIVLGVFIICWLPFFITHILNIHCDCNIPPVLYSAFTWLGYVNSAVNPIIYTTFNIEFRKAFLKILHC
Chain of 5-HT2B (P41595 whole entry): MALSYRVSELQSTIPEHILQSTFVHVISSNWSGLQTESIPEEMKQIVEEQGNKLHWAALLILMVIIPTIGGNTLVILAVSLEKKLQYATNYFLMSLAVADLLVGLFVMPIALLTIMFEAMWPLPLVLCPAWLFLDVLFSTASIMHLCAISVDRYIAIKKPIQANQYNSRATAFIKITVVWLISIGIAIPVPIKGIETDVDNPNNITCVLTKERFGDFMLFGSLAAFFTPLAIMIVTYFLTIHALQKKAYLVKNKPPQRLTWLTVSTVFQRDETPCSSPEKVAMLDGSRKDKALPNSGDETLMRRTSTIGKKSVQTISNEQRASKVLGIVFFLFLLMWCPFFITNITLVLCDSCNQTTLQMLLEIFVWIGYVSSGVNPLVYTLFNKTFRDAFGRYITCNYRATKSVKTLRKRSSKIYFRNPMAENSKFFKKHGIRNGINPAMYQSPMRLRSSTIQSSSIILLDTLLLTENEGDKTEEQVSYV
Chain of human Dopamine D2S receptor (P14416 1-414 isoform P14416-2): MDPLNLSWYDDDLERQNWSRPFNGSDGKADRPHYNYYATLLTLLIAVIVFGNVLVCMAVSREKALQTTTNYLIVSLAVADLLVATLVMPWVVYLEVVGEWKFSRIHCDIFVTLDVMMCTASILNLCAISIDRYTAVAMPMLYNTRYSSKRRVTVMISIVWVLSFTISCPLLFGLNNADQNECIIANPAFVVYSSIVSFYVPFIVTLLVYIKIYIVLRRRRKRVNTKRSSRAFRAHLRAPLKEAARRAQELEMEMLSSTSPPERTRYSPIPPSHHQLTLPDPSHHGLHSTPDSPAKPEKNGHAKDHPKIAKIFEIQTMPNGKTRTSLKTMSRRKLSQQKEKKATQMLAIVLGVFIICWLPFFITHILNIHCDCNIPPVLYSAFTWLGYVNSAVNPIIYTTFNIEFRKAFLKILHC
Chain of human Dopamine D3 receptor (P35462 whole entry): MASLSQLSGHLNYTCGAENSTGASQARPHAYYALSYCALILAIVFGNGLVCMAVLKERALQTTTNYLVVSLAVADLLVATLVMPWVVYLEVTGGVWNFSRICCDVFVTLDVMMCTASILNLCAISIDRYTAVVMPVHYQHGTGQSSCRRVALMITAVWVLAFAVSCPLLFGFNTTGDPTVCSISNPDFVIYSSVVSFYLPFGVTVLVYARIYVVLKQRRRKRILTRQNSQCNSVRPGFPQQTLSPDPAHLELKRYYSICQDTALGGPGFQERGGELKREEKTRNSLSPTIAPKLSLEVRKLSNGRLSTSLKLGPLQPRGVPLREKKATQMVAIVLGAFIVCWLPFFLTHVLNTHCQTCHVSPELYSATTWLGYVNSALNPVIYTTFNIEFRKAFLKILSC

## O=C(c1ccc(F)cc1)C1CCN(CCn2c(=O)[nH]c3ccccc3c2=O)CC1 [Ketanserin, reference compound]
[1]; 1 mg/kg IP 30 minutes prior to DOI 3 mg/kg IP
  DOI-induced headshake responses: decrease

## Cc1nc2n(c(=O)c1CCN1CCC(c3noc4cc(F)ccc34)CC1)CCCC2 [risperidone, Risperidone, reference compound]
[2]; [17]
  number of avoidance responses compared to vehicle: significantly decrease
  percent avoidance compared to vehicle: significantly decrease

## CNc1cc(OC)c(C(=O)N[C@H]2CCN(Cc3ccccc3)[C@H]2C)cc1Cl [cis (S,S) nemonapride, N-[(2S,3S)-1-benzyl-2-methylpyrrolidin-3-yl]-5-chloro-2-methoxy-4-(methylamino)benzamide]
[3]
  D3 (antagonist mode) Top % Inhibition at maximal concentration: GTPγS 117%
[4]
  5-HT1A (agonist mode) Top % Activation at maximal concentration: cAMP 17%
[5]
  D4 (antagonist mode) Top % Inhibition at maximal concentration: cAMP 67%
[6]
  5-HT2A (agonist mode) Top % Activation at maximal concentration: IP-one 29%
[7]
  D2 (antagonist mode) Top % Inhibition at maximal concentration, D2S: cAMP 88 (D2S) %
[8]
  IC50: 167 nM
  Ki: 117 nM
[9]
  D2 (antagonist mode) Top % Inhibition at maximal concentration, D2L: cAMP 84 (D2L) %
[10]
  5-HT2A (antagonist mode) Top % Inhibition at maximal concentration: IP-one 52%

## COc1cc(CC(C)N)c(OC)cc1I (centres unmarked) [DOI, reference compound]
[11]; rat, 3 mg/kg IP 10 minutes prior to test
  number of headshakes compared to vehicle: significantly increases
[1]; DOI 3 mg/kg IP
  number of headshakes compared to vehicle: significantly increases

## CNc1cc(OC)c(C(=O)N[C@H]2CCN(Cc3ccccc3)[C@H]2C)cc1Cl (racemic) [Nemonapride, (±)-cis-N-(1-Benzyl-2-methylpyrrolidin-3-yl)-5-chloro-2-methoxy-4-methylaminobenzamide]
[4]
  5-HT1A (agonist mode) Top % Activation at maximal concentration: cAMP 52%
[6]
  5-HT2A (agonist mode) Top % Activation at maximal concentration: IP-one 48%

## [2H]C([2H])([2H])Nc1cc(OC)c(C(=O)N[C@H]2CCN(C([2H])([2H])c3ccccc3)[C@H]2C)cc1Cl [Example A1, 5-Chloro-N-((2S,3S)-1-(dideutero(phenyl)methyl)-2-methylpyrrolidin-3-yl)-2-methoxy-4-(trideuteromethylamino)benzamide]
[11]; rat, 1, 5 and 10 mg/kg PO 4 hours prior to test
  number of headshakes compared to vehicle: no significant increase
[2]; [18]
  number of avoidance responses compared to vehicle: significantly decrease
  percent avoidance compared to vehicle: significantly decrease
[12]
  escape failures compared to vehicle: increase
[1]; 1 mg/kg PO 4 hours prior, DOI 3 mg/kg IP, p=0.051
  DOI-induced headshake responses: non-significant trend to decreasing
[1]; 5 and 10 mg/kg PO 4 hours prior, DOI 3 mg/kg IP
  DOI-induced headshake responses: decrease
[13]
  IC50: 2240 nM
[14]; 0.5 mg/kg orally, n=8, paired t-test p=0.006
  log b vs vehicle, Cohen's d: 1.21
[14]; 1 mg/kg orally, n=8, paired t-test p=0.04
  log b vs vehicle, Cohen's d: 0.75
[8]
  Ki: 74.4 nM
[9]
  D2 (antagonist mode) Top % Inhibition at maximal concentration, D2L: cAMP 81 (D2L) %
[15]
  Emax: 63%
[16]
  Emax: 92%
